Data published in patent US9259002B2, “Herbicidal composition and method of use thereof” (Syngenta Crop Protection LLC, priority 2006, dated 2016).

What was measured:
Assay type in all cases: in vivo
[1] = tested on: white clover (Trifolium repens); experiment: Glasshouse trial, post-emergence control of white clover
Method: A glasshouse trial was carried out. White clover seeds were sown into standard glasshouse potting mix (1:1 v/v Promix:Vero sand soil) contained in 10 cm square plastic pots. Treatments were replicated three times. […] When used, dithiopyr was applied at a rate of 70 g ai/ha or 140 g ai/ha. The adjuvant system was X-77 at 0.1% v/v in deionised water. 200 liters of herbicide/adjuvant system was used per hectare. General weed control was evaluated at 10 and 16 days after treatment (DAT). It is noted that all herbicides were applied at reduced field rates because herbicide effects are magnified in a glasshouse environment. Rates were chosen to give a 50 to 70% level of control with herbicides applied alone as this allows for detection of any synergistic effect when tank mixtures are used. […] The results were evaluated using the Colby formula. The expected result for (A+B) is (A+B)−(A×B/100) where A and B are the ‘observed’ results for A and B on their own. […] A glasshouse trial was carried out as described in Example 1, but using triclopyr (in the form of Turflon®) instead of dithiopyr. A glasshouse trial was carried out as described in Example 2, but using fluoroxypyr (in the form of Spotlight®) instead of triclopyr.

[2] = tested on: Medicago lupulina (black medic); experiment: Glasshouse trial, post-emergence control of black medic; conditions: for Expected control (Colby), Plus Mesotrione at 100 g ai/ha: Colby formula; for Actual control, Plus Mesotrione at 100 g ai/ha: post-emergence
Method: A glasshouse trial was carried out. White clover seeds were sown into standard glasshouse potting mix (1:1 v/v Promix:Vero sand soil) contained in 10 cm square plastic pots. Treatments were replicated three times. Mesotrione (in the form Callisto® 480SE) was applied post-emergence to white clover (Trifolium repens) at either 50 g ai/ha or 100 g ai/ha with or without dithiopyr (in the form Dimension®). When used, dithiopyr was applied at a rate of 70 g ai/ha or 140 g ai/ha. The adjuvant system was X-77 at 0.1% v/v in deionised water. 200 liters of herbicide/adjuvant system was used per hectare. General weed control was evaluated at 10 and 16 days after treatment (DAT). It is noted that all herbicides were applied at reduced field rates because herbicide effects are magnified in a glasshouse environment. Rates were chosen to give a 50 to 70% level of control with herbicides applied alone as this allows for detection of any synergistic effect when tank mixtures are used. […] The results were evaluated using the Colby formula. The expected result for (A+B) is (A+B)−(A×B/100) where A and B are the ‘observed’ results for A and B on their own. […] A glasshouse trial was carried out as described in Example 1, but using triclopyr (in the form of Turflon®) instead of dithiopyr. A glasshouse trial was carried out as described in Example 2, but using Medicago lupulina (black medic) of white clover. A glasshouse trial was carried out as described in Example 4, but using fluoroxypyr instead of triclopyr.

[3] = tested on: Eleusine indica (goosegrass); experiment: Glasshouse trial, post-emergence control of goosegrass; conditions: for Expected control (Colby), Plus Mesotrione at 200 g ai/ha: Colby formula; for Actual control, Plus Mesotrione at 200 g ai/ha: post-emergence
[4] = fluroxypyr 50 g ai/ha + mesotrione 100 g ai/ha
[5] = triclopyr 140 g ai/ha + mesotrione 200 g ai/ha
[6] = triclopyr 280 g ai/ha + mesotrione 200 g ai/ha
[7] = triclopyr 140 g ai/ha + mesotrione 100 g ai/ha

Structure (SMILES): CSC(=O)c1c(C(F)F)nc(C(F)(F)F)c(C(=O)SC)c1CC(C)C [Dithiopyr, S,S′-dimethyl 2-difluoromethyl-4-isobutyl-6-trifluoromethylpyridine-=3,5-dicarbothioate]
- Actual control, Plus Mesotrione at 50 g ai/ha ([1]; dithiopyr 70 g ai/ha + mesotrione 50 g ai/ha tank mix, post-emergence, 10 DAT): 46.7
- Expected control (Colby), Plus Mesotrione at 50 g ai/ha ([1]; dithiopyr 70 g ai/ha + mesotrione 50 g ai/ha, 10 DAT, Colby formula): 37.4
- Actual control, Plus Mesotrione at 100 g ai/ha ([1]; dithiopyr 70 g ai/ha + mesotrione 100 g ai/ha tank mix, post-emergence, 10 DAT): 55.0
- Expected control (Colby), Plus Mesotrione at 100 g ai/ha ([1]; dithiopyr 70 g ai/ha + mesotrione 100 g ai/ha, 10 DAT, Colby formula): 52.6
- Actual control, Plus Mesotrione at 50 g ai/ha ([1]; dithiopyr 140 g ai/ha + mesotrione 50 g ai/ha tank mix, post-emergence, 10 DAT): 43.3
- Expected control (Colby), Plus Mesotrione at 50 g ai/ha ([1]; dithiopyr 140 g ai/ha + mesotrione 50 g ai/ha, 10 DAT, Colby formula): 44.2
- Actual control, Plus Mesotrione at 100 g ai/ha ([1]; dithiopyr 140 g ai/ha + mesotrione 100 g ai/ha tank mix, post-emergence, 10 DAT): 46.7
- Expected control (Colby), Plus Mesotrione at 100 g ai/ha ([1]; dithiopyr 140 g ai/ha + mesotrione 100 g ai/ha, 10 DAT, Colby formula): 57.8
- control of white clover on its own ([1]; dithiopyr alone, higher rate (140 g ai/ha), post-emergence): 18%
- control of white clover on its own ([1]; dithiopyr alone, lower rate (70 g ai/ha), post-emergence): 8%

Structure (SMILES): Nc1c(Cl)c(F)nc(OCC(=O)O)c1Cl [Fluroxypyr, [(4-amino-3,5-dichloro-6-fluoro-2-pyridinyl)oxy]acetic acid]
- Expected control (Colby), Plus Mesotrione at 100 g ai/ha ([1]; fluroxypyr 50 g ai/ha + mesotrione 100 g ai/ha, Colby formula): 84
- Actual control, Plus Mesotrione at 100 g ai/ha ([1]; fluroxypyr 50 g ai/ha + mesotrione 100 g ai/ha, post-emergence): 91
- Expected control (Colby), Plus Mesotrione at 100 g ai/ha [2, 4]: 85
- Actual control, Plus Mesotrione at 100 g ai/ha [2, 4]: 90

Structure (SMILES): O=C(O)COc1nc(Cl)c(Cl)cc1Cl [Triclopyr, [(3,5,6-trichloro-2-pyridyl)oxy]acetic acid]
- Expected control (Colby), Plus Mesotrione at 200 g ai/ha [3, 5]: 32
- Actual control, Plus Mesotrione at 200 g ai/ha [3, 5]: 42
- Expected control (Colby), Plus Mesotrione at 200 g ai/ha [3, 6]: 35
- Actual control, Plus Mesotrione at 200 g ai/ha [3, 6]: 50
- Expected control (Colby), Plus Mesotrione at 100 g ai/ha ([1]; triclopyr 140 g ai/ha + mesotrione 100 g ai/ha, Colby formula): 84
- Actual control, Plus Mesotrione at 100 g ai/ha ([1]; triclopyr 140 g ai/ha + mesotrione 100 g ai/ha, post-emergence): 99
- Expected control (Colby), Plus Mesotrione at 200 g ai/ha ([1]; triclopyr 140 g ai/ha + mesotrione 200 g ai/ha, Colby formula): 90
- Actual control, Plus Mesotrione at 200 g ai/ha ([1]; triclopyr 140 g ai/ha + mesotrione 200 g ai/ha, post-emergence): 98
- Expected control (Colby), Plus Mesotrione at 100 g ai/ha [2, 7]: 91
- Actual control, Plus Mesotrione at 100 g ai/ha [2, 7]: 97

Structure (SMILES): CS(=O)(=O)c1ccc(C(=O)C2C(=O)CCCC2=O)c([N+](=O)[O-])c1 [mesotrione, 2-(2′-nitro-4′-methylsulphonylbenzoyl)-1,3-cyclohexanedione]
- control of white clover on its own ([1]; mesotrione alone, higher rate (100 g ai/ha), post-emergence): 48%
- control of white clover on its own ([1]; mesotrione alone, lower rate (50 g ai/ha), post-emergence): 32%
